# Laboratory results: patent US6605305B2, “Plant drug for treatment of liver disease” (priority 2001, dated 2003)
# Legend:
# DNA synthesis of liver = assay: Liver DNA synthesis ([^3H] thymidine incorporation) in CCl4-intoxicated mice; type: in vivo; settings: SCS 50 mg/kg intragastrically daily for 4 days
# Procedure: (§1) Female Balb/c mice (22-24 g) were maintained at 20° C. and a 12 hours light/dark cycle. The food and water allowed adliboti. Mice were randomly assigned to groups of 20 individuals. Twenty-four hours after the last dosing, animals were administered an oral dose of CCl4 (1%, v/v, in olive oil) at 1.0 mmol/kg. In treatment group, mice were treated intragastrically with SCS at daily dose of 50 mg/kg for 4 days. Control animals were given the vehicle (i.e. olive oil, 1 mL/kg). Twenty-four hours after intoxication, heparinized blood samples were drawn from ether-anesthetized mice by cardiac puncture, and the animals were killed by cardiac excision thereafter.
# [^3H] thymidine (10 μCi/100 g body weight) was injected intraperitoneally and mice were killed 2 hours after the infection. Mice were killed at 12, 24, 36, 48, 72 and 120 hours and their livers were removed.
# DNA synthesis was determined by the incorporation of [^3H] thymidice into the acid-insoluble fraction. The liver was homogenized in 4 volumes of distilled water. Two ml of homogenate were added to an equal volume of 10% trichloroacetic acid (TCA) solution and centrifuged at 900 g for 10 minutes. The resultant pellet was washed with 5% TCA twice and suspended again in 2 ml of 5% TCA solution. The suspension was incubated at 90° C. for 20 minutes and centrifuged at 900 g for 10 minutes. One ml of the supernatant was put into a scintillation vial and 10 ml of a toluene-based scintillation fluid containing DPO (0.4%), POPOP (0.01%), and Triton X-100 (30%) as added. The radioactivity was counted in a Packard Tri-Carb Liquid scintillation counter. The DNA content of the supernatant was assayed by the method of using calf thymus DNA as the standard.
# [1] = test system: Serum alamine aminotransferase (ALT); assay: Serum ALT activity in CCl4-intoxicated mice; type: in vivo
# Procedure: as §1
# Animal section described as previously. Plasma was obtained by centrifugation. The whole blood at 2000×g at 4° C. Serum alamine aminotransferase (ALT) activity was determined by assay kit from Sigma Chemical Co.
# Glutathione (GSH) = assay: Hepatic mitochondrial GSH level in CCl4-treated mice; type: in vivo; settings: CCl4 + SCS
# Procedure: as §1
# (§2) The rats were starved overnight before decapitation. The livers were perfused in situ with ice-cold 1.15% KCl solution. Tissue homogenate was prepared by homogenizing 1 g of hepatic tissue sample in 10 mL ice-cold homogenizing buffer with two 10-secbursts of atissue disintegrator at 135,000 rpm. Hepatic mitochondrial fraction was prepared by differential centrifugation in isotonic buffer ([…], 0.1 mM EDTA, 5 mM Tris, pH 7.4).
# (§3) The experiments of animal and livers were performed as previously described. Glutathione (GSH) level was determined by an HPLC method. In the present study, the effect of SCS on GHS and GRD were examined.
# GRD = assay: Hepatic GRD activity in CCl4-treated mice; type: in vivo
# Procedure: as §1, §2, §3
# Lipoperoxides = assay: Liver lipoperoxides (MDA) after CCl4; type: in vivo, mice
# Procedure: Female Balb/c mice (22-24 g) were maintained at 20° C. and a 12 hours light/dark cycle. The food and water allowed adliboti. Mice were randomly assigned to groups of 20 individuals. Twenty-four hours after the last dosing, animals were administered an oral dose of CCl4 (1%, v/v, in olive oil) at 1.0 mmol/kg. In treatment group, mice were treated intragastrically with SCS at daily dose of 50 mg/kg for 4 days. Control animals were given the vehicle (i.e. olive oil, 1 mL/kg). […]
# The experiments were performed as previously described.
# In the present study, the effect of SCS on lipoperoxides was examined.
# [2] = test system: NADPH-cytochrome Creductase; assay: Hepatic microsomal monooxygenases: NADPH-cytochrome C reductase; type: in vivo; settings: rat liver microsomes, treatment group
# Benzpyrene hydroxylase = assay: Hepatic microsomal monooxygenases: benzpyrene hydroxylase; type: in vivo; settings: rat liver microsomes, treatment group
# [3] = test system: bovine aortic smooth muscle cell modified LDL; assay: Cell-modified LDL oxidation (MDA); type: cell-based; settings: LDL + 100 μg SCS/ml, 24 hours, 37° C.
# complement = assay: Effect of SCS on complement; type: in vivo, mice
# [4] = test system: Aflatoxin B1 induced liver cancer; set-up: species or system rats; settings: rat, in vivo
# Hepatoma = assay: DNA synthesis of cancer cells ([^3H]TdR incorporation), hepatoma; type: in vivo, rats
# Procedure: (§4) The method of animal and liver was described previously. Ascitric hepatoma, S180-ν, the transplantable 3924 used. After treatment with SCS (100 mg/kg), rats were injected with [^3H]-TdR (10 μc/μmole). Two hours after injection the animals were decapitated and examined. Livers and tumors were rapidly removed and blotted on filter paper. Tumors were carefully dissected free of necrotic, hemorrhagic, and nontumorous material. Tissues were minced with sharp scissors and 2 gm. DNA was prepared from the tissues. The radioactivity of the DNA was determined by liquid scintillation counting.
# (§5) The incorporation of thymidine into DNA ws expressed as cpm/mg of DNA or cpm/gm of tissue.
# 3924A = assay: DNA synthesis of cancer cells ([^3H]TdR incorporation), 3924A; type: in vivo, rats
# Procedure: as §4, §5
# mice = assay: Acute toxicity in mice; type: in vivo
# Text: a. Route of Administration: intravenous and intraperiotoneal injection
# b. Route of administration: the oral route
smiles,measurement,setting,value
"COc1cc2c(c(OC)c1OC)-c1c(cc(OC)c(OC)c1OC)C[C@](C)(O)[C@@H](C)C2 [SCS, Schisandrin]",DNA synthesis (cpm/mg DNA),DNA synthesis of liver; 12 h,6520 ± 678 cpm/mg DNA
same,DNA synthesis (cpm/mg DNA),DNA synthesis of liver; 24 h,12305 ± 1405 cpm/mg DNA
same,DNA synthesis (cpm/mg DNA),DNA synthesis of liver; 48 h,8910 ± 920 cpm/mg DNA
same,DNA synthesis (cpm/mg DNA),DNA synthesis of liver; 72 h,9300 ± 940 cpm/mg DNA
same,ALT (X ± S),"[1]; CCl4 + SCS, serum, mice, SCS 50 mg/kg intragastrically daily for 4 days",68.8 ± 7.0 U L^−1
same,CCl4 toxicity decreased by SCS (ALT),"[1]; CCl4 mice, versus control",87.9%
same,GSH,Glutathione (GSH),21.8 ± 2.0 nmol/mg protein
same,GRD,GRD; CCl4 + SCS,50.6 ± 6.0 mU/mg protein
same,GRD activity T/C,GRD; treatment versus CCl4 control,347%
same,GRD activity T/N,GRD; treatment versus normal group,145%
same,Lipoperoxides (mmol MDA/g liver protein),Lipoperoxides; 1 h,0.70 ± 0.07 mmol MDA/g liver protein
same,Lipoperoxides T/C,Lipoperoxides; 1 h,87%
same,Lipoperoxides (mmol MDA/g liver protein),Lipoperoxides; 3 h,0.65 ± 0.069 mmol MDA/g liver protein
same,Lipoperoxides T/C,Lipoperoxides; 3 h,72%
same,Lipoperoxides (mmol MDA/g liver protein),Lipoperoxides; 6 h,0.60 ± 0.70 mmol MDA/g liver protein
same,Lipoperoxides T/C,Lipoperoxides; 6 h,55%
same,Lipoperoxides (mmol MDA/g liver protein),Lipoperoxides; 12 h,0.52 ± 0.60 mmol MDA/g liver protein
same,Lipoperoxides T/C,Lipoperoxides; 12 h,40%
same,Lipoperoxides (mmol MDA/g liver protein),Lipoperoxides; 24 h,0.50 ± 0.58 mmol MDA/g liver protein
same,Lipoperoxides T/C,Lipoperoxides; 24 h,22%
same,NADPH-cytochrome Creductase,[2],202.5 ± 22 nmol/mg protein
same,Benzpyrene hydroxylase,Benzpyrene hydroxylase,51.8 ± 6.5 nmol/mg protein
same,"MDA (nmol/mg protein, x ± s)",[3],2.80 ± 0.29 nmol/mg protein
same,C.P.M.,complement; treatment group,480 ± 51
same,CPM of T/C,complement; treatment versus control,194.3%
same,% of iron-excluding area in liver section,[4],2.2 ± 0.2 %
same,Inhibition %,[4],87.8%
same,Tissue inhibition rate (%),Hepatoma; Hepatoma T versus C,56.4%
same,[^3H]TdR into DNA × 10^−3 cm/mg,"Hepatoma; Hepatoma T, SCS 100 mg/kg",8.8 ± 0.80 × 10^−3 cm/mg
same,Tissue inhibition rate (%),3924A; 3924A t versus C,52.6%
same,[^3H]TdR into DNA × 10^−3 cm/mg,"3924A; 3924A t, SCS 100 mg/kg",38.7 ± 4.8 × 10^−3 cm/mg
same,LD50,mice; intragastric administration,5200 mg/kg
same,LD50,mice; intraperitoneal injection,1250 mg/kg
same,LD50 intravenous versus dose used in clinical trials for human being,mice; intravenous,> 100 times
same,LD50,mice; intravenous injection,720 mg/kg
